Assay results: article PMC3084839, “Origin of Secretin Receptor Precedes the Advent of Tetrapoda: Evidence on the Separated Origins of Secretin and Orexin” (PLoS ONE, 2011)
Ends that are not written are not given here.

B1: xSCT: 28-amino acid X. laevis secretin peptide cloned in this study, synthesized by one of the authors (protein)
chain: SSLPARSKRHVDGRFTSEFSRARGSAAIRKIINSALAGKRDIEENYQIDVPDVDNQREILKELAYNSLPELRSEEKQLTEQKAAEDLLCSAILNMLYRAPYQPLPAQSAQDYQGKNSSVEEVKHI

How the values were obtained:
[1] = tested on: human orexin type-2 receptor; conditions: human orexin type-2 receptor-transfected CHO cells; cited from earlier work
Description: (§1) Orexins A and B [17] or hypocretins 1 and 2 [18] are peptides isolated from the rat hypothalamus in 1998 by two independent research groups. Both peptides are derived from the same precursor protein and are produced by differential proteolytic cleavage. Because the C-terminal portions of both orexin peptides resemble the N-terminal of secretin, orexins were proposed to have originated from secretin or the related peptides in the secretin/glucagon superfamily, [19]. This hypothesis was then examined by studying the bindings of these peptides with their receptors in mammals and conf ...

human orexin receptors = conditions: cited from earlier work
Description: as §1

[2] = target: T1, xOX2R (Xenopus orexin type-2 receptor) (Xenopus laevis, UniProt F8RUB9); assay: Intracellular calcium mobilization in xOX2R-CHO cells; format: cell-based; conditions: data not shown
T1 sequence (F8RUB9 1-440): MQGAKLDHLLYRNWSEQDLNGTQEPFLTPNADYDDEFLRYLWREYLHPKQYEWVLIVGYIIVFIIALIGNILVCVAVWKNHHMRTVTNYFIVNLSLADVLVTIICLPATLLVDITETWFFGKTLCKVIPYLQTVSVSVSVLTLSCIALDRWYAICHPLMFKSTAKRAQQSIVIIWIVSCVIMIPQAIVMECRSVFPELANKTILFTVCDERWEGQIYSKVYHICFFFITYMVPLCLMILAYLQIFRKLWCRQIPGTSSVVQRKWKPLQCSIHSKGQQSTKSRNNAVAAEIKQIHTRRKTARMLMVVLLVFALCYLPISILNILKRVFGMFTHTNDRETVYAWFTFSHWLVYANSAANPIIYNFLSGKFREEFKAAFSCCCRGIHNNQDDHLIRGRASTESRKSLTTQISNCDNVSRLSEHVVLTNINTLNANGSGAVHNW
Experimental: (§2) For confocal calcium imaging, transiently transfected cells were plated at a density of 3000 cells/well in 24-well plates (Sigma-Aldrich, St. Louis, MO). After overnight incubation, cells were pre-loaded with 5 µM Fluo-3 acetoxymethyl ester (AM) (Sigma) for 45 min at 37°C in Tyrode solution consisting of (mM): 140 NaCl, 5 KCl, 1 MgCl2, 1 CaCl2, 10 glucose and 10 HEPES at pH 7.4. Calcium transient of single receptor-transfected CHO cell was recorded with a confocal imaging system (Olympus Fluoview System version 4.2 FV300 TIEMPO) mounted on an upright Olympus microscope (IX71). Peptides at concentrations ranging from 10^−5 to 10^−12 M were added at designated time point and calcium level was traced in a real-time manner using the Fluoview software (Olympus). […] For both assays, ionomycin (10 µM) was added at the end of each experiment to test the vitality of the cells.
(§3) Differences were considered significant when P<0.05.

[3] = target: T2, lfSCTR (P. dolloi secretin receptor) (Protopterus dolloi, UniProt F8RUA8); assay: Intracellular cAMP production in lfSCTR-transfected CHO cells; format: cell-based; conditions: for [cAMP]i stimulation of lfSCTR at 100 nM: 100 nM peptide, lfSCTR-transfected CHO-K1 cells, P<0.001; for EC50: CHO cells transiently transfected with lfSCTR, graded peptide concentrations, LANCE cAMP assay, mean ± SEM, n = 4, read-out: [cAMP]i EC50, lfSCTR
T2 sequence (F8RUA8 1-463): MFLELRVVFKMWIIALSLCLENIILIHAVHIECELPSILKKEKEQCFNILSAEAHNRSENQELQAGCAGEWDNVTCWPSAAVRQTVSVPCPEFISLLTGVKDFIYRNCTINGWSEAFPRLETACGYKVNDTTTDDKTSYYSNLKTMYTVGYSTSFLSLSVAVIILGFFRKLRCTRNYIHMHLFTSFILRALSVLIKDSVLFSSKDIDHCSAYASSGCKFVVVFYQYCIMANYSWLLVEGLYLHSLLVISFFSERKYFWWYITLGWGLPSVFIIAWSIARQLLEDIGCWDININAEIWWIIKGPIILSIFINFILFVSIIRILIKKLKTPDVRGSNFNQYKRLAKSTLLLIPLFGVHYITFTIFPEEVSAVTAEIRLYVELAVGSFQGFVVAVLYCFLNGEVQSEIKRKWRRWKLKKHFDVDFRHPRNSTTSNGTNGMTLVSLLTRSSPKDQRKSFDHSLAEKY
Description: as §3

[4] = target: T2, lfSCTR (P. dolloi secretin receptor); assay: Intracellular calcium mobilization in lfSCTR-transfected CHO cells; format: cell-based; conditions: lfSCTR-transfected CHO cells preloaded with Fluo-3; confocal imaging; at least 10 independent experiments; read-out: [Ca2+]i EC50, lfSCTR
Experimental: as §2, §3

orexin receptor = conditions: rat anterior hypothalamus and orexin receptor-transfected cells; cited from earlier work
Description: as §1

[5] = tested on: R. rugulosa pancreatic ductal cells; assay: cAMP production in primary culture of R. rugulosa pancreatic ductal cells; format: cell-based, Rana rugulosa; conditions: positive control
Experimental: Adult male R. rugulosa was sacrificed by cervical decapitation. The freshly excised pancreas was removed and washed in Ringer solution (in mM, 85 NaCl, 4 KCl, 17.5 NaHCO3, 0.8 KH2PO4, 2 glucose, 1.5 CaCl2 and 0.8 MgCl2, pH 7.6). The excised pancreas was then minced into approximately 1 mm^3 pieces and digested at room temperature for 1 hr in the dissociation medium (Ringer solution supplemented with 0.2 mg/ml soy beans trypsin inhibitor (Sigma), 2 mg/ml BSA (Roche), 400 U/ml hyaluronidase (Sigma) and 50 U/ml collagenase (Sigma)). The tissue suspension was then washed with Ringer solution and small clusters of dissociated cells were filtered with the use of a 100-µm cell strainer (BD Falcon, US). Filtrate containing the undigested tissue, including the pancreatic ducts, was maintained in culture medium (80% Leibovitz's L-15 medium (Invitrogen) supplemented with 10% FBS and 100 U/ml Penicillin/[…] Streptomycin) in a humidified incubator at 24°C. […] The isolated pancreatic ductal cells were then used for cAMP stimulation in the presence of xSCT peptides and forskolin.

[6] = lfSCTR-CHO cells, micro-molar concentrations (10^-5 and 10^-6 M)

Molecule | [cAMP]i stimulation of lfSCTR at 100 nM [3] | EC50 [3] [µM] | EC50 [4] [µM] | other results
SCT: secretin, species not stated, in cited human orexin receptor studies | – | – | – | calcium elevation [1]: unable; displacement of [125I] orexin A [1]: unable to displace; agonistic or antagonistic effects (human orexin receptors): neither agonistic nor antagonistic effects
Human orexin A: human orexin A peptide (QPLPDCCRQKTCSCRLYELLHGAGNHAAGILTL; ends and bridges not checked; cysteine pairing not given here; UniProt O43612 34-66, looked up) | – | – | – | [Ca2+]i response, xOX2R [2]: able to induce calcium elevations
Human orexin B: human orexin B peptide | – | – | – | [Ca2+]i response, xOX2R [2]: able to induce calcium elevations
CC[C@H](C)[C@H](NC(=O)CNC(=O)[C@H](CC(=O)O)NC(=O)[C@H](CO)NC(=O)[C@@H](N)Cc1c[nH]cn1)C(=O)N[C@@H](Cc1ccccc1)C(=O)N[C@H](C(=O)N[C@@H](CC(=O)O)C(=O)N[C@@H](CO)C(=O)N[C@@H](Cc1ccc(O)cc1)C(=O)N[C@@H](CO)C(=O)N[C@@H](CCCNC(=N)N)C(=O)N[C@@H](Cc1ccc(O)cc1)C(=O)N[C@@H](CCCNC(=N)N)C(=O)N[C@@H](CCCCN)C(=O)N[C@@H](CCC(N)=O)C(=O)N[C@@H](CCSC)C(=O)N[C@@H](C)C(=O)N[C@H](C(=O)N[C@@H](CCCCN)C(=O)N[C@@H](CCCCN)C(=O)N[C@@H](Cc1ccc(O)cc1)C(=O)N[C@@H](CC(C)C)C(=O)N[C@@H](C)C(=O)N[C@@H](C)C(=O)N[C@H](C(=O)N[C@@H](CC(C)C)C(N)=O)C(C)C)C(C)C)[C@@H](C)O [hPACAP27] | significantly stimulate | 0.41 | 0.0256 | –
Porcine SCT: porcine secretin, literature result (HSDGTFTSELSRLRDSARLQRLLQGLV; ends and bridges not checked; UniProt P63298 33-59, looked up) | – | – | – | displacement of [125I] orexin A binding (orexin receptor): found to displace
CC[C@H](C)[C@H](NC(=O)[C@H](CO)NC(=O)[C@H](CC(N)=O)NC(=O)[C@H](CC(C)C)NC(=O)[C@H](Cc1ccc(O)cc1)NC(=O)[C@H](CCCCN)NC(=O)[C@H](CCCCN)NC(=O)[C@@H](NC(=O)[C@H](C)NC(=O)[C@H](CCSC)NC(=O)[C@H](CCC(N)=O)NC(=O)[C@H](CCCCN)NC(=O)[C@H](CCCNC(=N)N)NC(=O)[C@H](CC(C)C)NC(=O)[C@H](CCCNC(=N)N)NC(=O)[C@@H](NC(=O)[C@H](Cc1ccc(O)cc1)NC(=O)[C@H](CC(N)=O)NC(=O)[C@H](CC(=O)O)NC(=O)[C@@H](NC(=O)[C@H](Cc1ccccc1)NC(=O)[C@@H](NC(=O)[C@H](C)NC(=O)[C@H](CC(=O)O)NC(=O)[C@H](CO)NC(=O)[C@@H](N)Cc1c[nH]cn1)C(C)C)[C@@H](C)O)[C@@H](C)O)C(C)C)C(=O)N[C@@H](CC(C)C)C(=O)N[C@@H](CC(N)=O)C(N)=O [hVIP] | significantly stimulate | 0.16 | 0.0103 | –
CC(C)C[C@H](NC(=O)CNC(=O)[C@H](CCC(N)=O)NC(=O)[C@H](CC(C)C)NC(=O)[C@H](CC(C)C)NC(=O)[C@H](CCCNC(=N)N)NC(=O)[C@H](CCC(N)=O)NC(=O)[C@H](CC(C)C)NC(=O)[C@H](CCCNC(=N)N)NC(=O)[C@H](C)NC(=O)CNC(=O)[C@H](CCC(=O)O)NC(=O)[C@H](CCCNC(=N)N)NC(=O)[C@H](CC(C)C)NC(=O)[C@H](CCCNC(=N)N)NC(=O)[C@H](CO)NC(=O)[C@H](CC(C)C)NC(=O)[C@H](CCC(=O)O)NC(=O)[C@H](CO)NC(=O)[C@@H](NC(=O)[C@H](Cc1ccccc1)NC(=O)[C@@H](NC(=O)CNC(=O)[C@H](CC(=O)O)NC(=O)[C@H](CO)NC(=O)[C@@H](N)Cc1c[nH]cn1)[C@@H](C)O)[C@@H](C)O)C(=O)N[C@H](C(N)=O)C(C)C [hSCT] | significantly stimulate | 0.79 | 0.0147 | efficacy of hSCT relative to hPACAP27 in triggering [cAMP]i [3, 6]: 5.0 fold; efficacy of hSCT relative to hVIP in triggering [cAMP]i [3, 6]: 3.6 fold
C=C[C@@]1(C)CC(=O)[C@]2(O)[C@@]3(C)[C@@H](O)CCC(C)(C)[C@@H]3[C@H](O)[C@H](OC(C)=O)[C@@]2(C)O1 [Forskolin] | – | – | – | increase in cAMP level compared with the basal [5]: 20 fold
B1 | – | 1.82 | 0.273 | –
